Reference: BindingDB's records for doi:10.1016/j.bmcl.2004.11.051 (Merck Frosst Centre For Therapeutic Research, 2005)

Legend:
[1] = target: T1, Prostaglandin E2 receptor EP3 subtype (Homo sapiens, UniProt P43115); assay: Binding affinity for human prostanoid EP3 receptor
T1 sequence (P43115 whole entry): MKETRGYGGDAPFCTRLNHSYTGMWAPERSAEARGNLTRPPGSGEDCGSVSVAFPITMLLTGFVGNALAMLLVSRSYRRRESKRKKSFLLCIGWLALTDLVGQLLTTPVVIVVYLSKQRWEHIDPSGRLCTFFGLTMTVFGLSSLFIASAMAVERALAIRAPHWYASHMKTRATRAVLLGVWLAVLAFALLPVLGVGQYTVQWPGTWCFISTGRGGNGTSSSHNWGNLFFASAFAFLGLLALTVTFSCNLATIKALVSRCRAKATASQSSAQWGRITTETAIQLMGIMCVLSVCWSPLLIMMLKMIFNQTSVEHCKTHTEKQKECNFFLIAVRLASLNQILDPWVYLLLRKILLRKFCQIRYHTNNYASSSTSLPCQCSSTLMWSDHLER

[2] = target: Prostaglandin E2 receptor EP2 subtype (Homo sapiens, UniProt P43116); assay: Binding affinity for human prostanoid EP2 receptor
[3] = target: Prostaglandin E2 receptor EP4 subtype (Homo sapiens, UniProt P35408); assay: Binding affinity for human prostanoid EP4 receptor
Sequence of Prostaglandin E2 receptor EP4 subtype (P35408 whole entry): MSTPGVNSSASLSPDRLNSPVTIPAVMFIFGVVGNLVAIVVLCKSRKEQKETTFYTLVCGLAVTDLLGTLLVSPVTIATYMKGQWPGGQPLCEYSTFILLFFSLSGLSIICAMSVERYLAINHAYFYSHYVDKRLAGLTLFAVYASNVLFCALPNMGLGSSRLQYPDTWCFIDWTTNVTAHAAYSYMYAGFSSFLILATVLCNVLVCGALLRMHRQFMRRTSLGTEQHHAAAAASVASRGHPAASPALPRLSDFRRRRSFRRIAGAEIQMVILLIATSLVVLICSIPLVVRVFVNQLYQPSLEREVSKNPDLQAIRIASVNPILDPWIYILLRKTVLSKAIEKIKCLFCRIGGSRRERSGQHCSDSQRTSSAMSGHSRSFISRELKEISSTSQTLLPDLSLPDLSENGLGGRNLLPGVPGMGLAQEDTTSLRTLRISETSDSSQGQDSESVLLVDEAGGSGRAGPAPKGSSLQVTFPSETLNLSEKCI

Sequence of Prostaglandin E2 receptor EP2 subtype (P43116 whole entry): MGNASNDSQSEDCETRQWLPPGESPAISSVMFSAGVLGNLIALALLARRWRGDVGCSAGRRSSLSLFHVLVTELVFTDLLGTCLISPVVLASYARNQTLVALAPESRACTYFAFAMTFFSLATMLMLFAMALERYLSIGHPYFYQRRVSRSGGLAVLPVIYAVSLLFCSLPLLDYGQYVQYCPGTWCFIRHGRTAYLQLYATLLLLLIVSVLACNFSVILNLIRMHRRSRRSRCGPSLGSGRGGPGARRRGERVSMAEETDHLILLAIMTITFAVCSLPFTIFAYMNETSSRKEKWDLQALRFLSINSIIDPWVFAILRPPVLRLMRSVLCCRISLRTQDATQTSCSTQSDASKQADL

SMILES: Cc1cccc(C/C=C/c2ccccc2/C=C/C(=O)O)c1OCc1ccccc1
- Ki [1]: 9 nM
- Ki [2]: 860 nM
- Ki [3]: 2000 nM
